These compounds were tested against T1, Corticotropin-releasing factor receptor 1 (Homo sapiens, UniProt P34998) (assay: Displacement of [125I]sauvagine from human recombinant CRF1 receptor expressed in CHO cells by SPA).
T1 sequence (P34998 whole entry): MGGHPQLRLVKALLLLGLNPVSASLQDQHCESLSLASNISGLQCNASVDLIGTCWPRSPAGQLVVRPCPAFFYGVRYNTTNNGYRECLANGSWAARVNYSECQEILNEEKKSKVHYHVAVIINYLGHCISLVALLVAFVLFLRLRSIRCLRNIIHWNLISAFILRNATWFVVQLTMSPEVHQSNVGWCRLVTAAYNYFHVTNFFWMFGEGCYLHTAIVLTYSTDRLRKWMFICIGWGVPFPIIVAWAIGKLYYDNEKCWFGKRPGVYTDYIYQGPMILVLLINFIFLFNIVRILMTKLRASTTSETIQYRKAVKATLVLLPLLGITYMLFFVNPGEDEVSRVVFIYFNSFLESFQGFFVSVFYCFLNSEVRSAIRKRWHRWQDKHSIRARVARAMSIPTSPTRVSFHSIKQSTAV
Format: cell-based

| IC50 [µM] | SMILES |
| --- | --- |
| 0.851 | Cc1cc(-n2ccc(-c3nccs3)n2)c2c(n1)N(c1ccc(C#N)cc1-c1cccs1)CC2 |
| 3.89 | Cc1cc(-n2ccc(-c3nccs3)n2)c2c(n1)N(c1ccc(S(C)(=O)=O)cc1S(C)(=O)=O)CC2 |
| 0.363 | Cc1cc(-n2ccc(-c3ccccn3)n2)c2c(n1)N(c1ccc(C#N)cc1Cl)CC2 |
| 0.427 | COc1ccc(-n2ccc3c(-n4ccc(-c5nccs5)n4)cc(C)nc32)c(C)c1 |
| > 10 | COc1ccc2c(c1)CCN2c1cc(-n2ccc(-c3nccs3)n2)cc(C)n1 |
| 8.32 | Cc1cc(-n2ccc(-c3nccs3)n2)c2[nH]c(=O)n(-c3ccc(C(F)(F)F)cc3C(F)(F)F)c2n1 |
| 0.0275 | Cc1cc(-n2ccc(-c3nccs3)n2)c2c(n1)N(c1ccc(C(F)(F)F)cc1C(F)(F)F)CC2 |
| 8.71 | COc1ccc(N2CCc3c(-n4ccc(-c5nccs5)n4)cc(C)nc32)cc1 |
| 0.0933 | Cc1cc(-n2ccc(-c3ccccn3)n2)c2c(n1)N(c1ccc(C#N)cc1C(F)(F)F)CC2 |
| 0.126 | CCc1cc(C#N)ccc1N1CCc2c(-n3ccc(-c4nccs4)n3)cc(C)nc21 |
| 0.316 | Cc1cc(-n2ccc(-n3cccn3)n2)c2c(n1)N(c1ccc(C#N)cc1C)CC2 |
| 0.145 | Cc1cc(-n2ccc(-n3cccn3)n2)c2c(n1)N(c1ccc(C#N)cc1C(F)(F)F)CC2 |
| > 10 | Cc1cc(-n2ccc(-c3nccs3)n2)c2nc(C)n(-c3ccc(C(F)(F)F)cc3C(F)(F)F)c2n1 |
| 0.0603 | COc1ccc(N2CCc3c(-n4ccc(-c5nccs5)n4)cc(C)nc32)c(C)n1 |
| > 10 | Cc1cc(-n2ccc(-c3nccs3)n2)c2c(n1)N(c1ccc(C(F)(F)F)cc1C(F)(F)F)S(=O)(=O)C2 |
| 2.34 | Cc1cc(-n2ccc(-c3nccs3)n2)c2c(n1)N(c1ccc(S(C)(=O)=O)cc1Cl)CC2 |

The next lines start with the compound.

| SMILES | IC50 [µM] |
| --- | --- |
| COc1ccc(N2CCc3c(-n4ccc(-c5nccs5)n4)cc(C)nc32)c(OC)n1 | 0.214 |
| Cc1cc(-n2ccc(-c3nccs3)n2)c2c(n1)N(c1ccc(F)cc1[N+](=O)[O-])CC2 | > 10 |
| Cc1cc(-n2ccc(-c3nccs3)n2)c2c(n1)N(c1ccc(Cl)cc1[N+](=O)[O-])CC2 | > 10 |
| COc1ccc(N2CCc3c(-n4ccc(-c5nccs5)n4)cc(C)nc32)c([N+](=O)[O-])c1 | > 10 |
| Cc1cc(-n2ccc(-c3nccs3)n2)c2c(n1)N(c1ccc([N+](=O)[O-])cc1C(F)(F)F)CC2 | 0.0589 |
| Cc1cc(-n2ccc(-c3ccccn3)n2)c2c(n1)N(c1ccc(C#N)cc1C)CC2 | 0.224 |
| Cc1cc(-n2ccc(-c3nccs3)n2)c2c(n1)N(c1cnc(N(C)C)cc1C)CC2 | 0.257 |
| Cc1cc(-n2ccc(-c3nccs3)n2)c2c(n1)N(c1ccc(O)cc1C)CC2 | 3.47 |
| Cc1cc(-n2ccc(-c3nccs3)n2)c2nc(C(F)(F)F)n(-c3ccc(C(F)(F)F)cc3C(F)(F)F)c2n1 | > 10 |
| Cc1cc(-n2ccc(-c3nccs3)n2)c2c(n1)N(c1ccc(C#N)cc1C#N)CC2 | 7.41 |
| COc1ccc(N2CCc3c(-n4ccc(-c5nccs5)n4)cc(C)nc32)c(C)c1 | 0.0537 |
| Cc1cc(-n2ccc(-c3nccs3)n2)c2c(n1)N(c1ccc(C#N)cc1F)CC2 | 2.04 |
| Cc1cc(-n2ccc(-c3nccs3)n2)c2c(n1)N(c1ccc(F)cc1C)CC2 | 0.162 |
| COc1ccc(N2CCc3c(-n4ccc(-c5nccs5)n4)cc(C)nc32)c(Cl)c1 | 0.0562 |
| COc1ccc(N2CCc3c(-n4ccc(-c5nccs5)n4)cc(C)nc32)c(OC)c1 | 0.174 |
| Cc1cc(-n2ccc(-c3nccs3)n2)c2cnn(-c3ccc(C#N)cc3C)c2n1 | 2.75 |
| Cc1cc(-n2ccc(-n3cccn3)n2)c2c(n1)N(c1ccc(C#N)cc1Cl)CC2 | 0.115 |
| COc1ccc(N2CCc3c(-n4ccc(-c5nccs5)n4)cc(C)nc32)c(C(F)F)c1 | 0.0347 |
| Cc1cc(-n2ccc(-c3nccs3)n2)c2c(n1)N(c1ccc(C#N)cc1Cl)CC2 | 0.229 |

Reference: ChEMBL document CHEMBL1152302, “Dihydropyrrole[2,3-d]pyridine derivatives as novel corticotropin-releasing factor-1 antagonists: mapping of the receptor binding pocket by in silico docking studies” (J Med Chem, 2008)
